These results are taken from paper PMC7694175, “Kunitz-Type Peptides from the Sea Anemone Heteractis crispa Demonstrate Potassium Channel Blocking and Anti-Inflammatory Activities” (Biomedicines, 2020).

In one assay the test system is TNF-α. The experiment in a line: TNF-α ELISA in blood of mice with carrageenan-induced inflammation. Type of assay: in vivo, ICR mice. Particulars: mouse blood 24 h after carrageenan, indomethacin 5 mg/kg oral. The procedure: Tests were performed on male ICR mice, with six individuals in each group. A peptide sample was dissolved in sterile saline and administered intravenously at doses of 0.1 and 1.0 mg/kg. Control animals received an equivalent volume of sterile saline. Indomethacin at a dose of 5 mg/kg was used as a positive control and administered orally to animals. Each mouse received 20 μL of a 1% solution of carrageenan in the hind paw pad after 30 min in the case of saline and tested peptide and after 60 min in the case of indomethacin. Then, the resulting edema was measured at several time points (1, 3, 5, and 24 h) using a plethysmometer (Ugo Basile, Gemonio (VA), Italy).
Animals were terminally anaesthetized with sodium pentobarbital ([…] i.p., Euthatal, Merial Animal Health, Essex, UK) 24 h after carrageenan injection. Then the thoracic cavity was opened and blood was collected in tubes with the ethylenediaminetetraacetic acid (EDTA) directly from the right atrium of the heart. The whole blood was centrifuged at 2.5 × 10^3× g for 10 min to remove cells; the blood serum was then aliquoted and stored at −20 °C. These samples were analyzed for TNF-α in the enzyme-linked immunosorbent assay (ELISA) using a diagnostic kit according to the manufacturer’s protocol (CUSABIO BIOTECH Co., Ltd., Houston, TX, USA).

For another assay, the system named is trypsin. Particulars: cited from earlier work.
In a further assay the test system is Kv1.3. Also noted: key to IC50 Kv1.3 (class symbol): -: no or weak activity. Particulars: cited from earlier work.
The subject of a further assay is Kv1.2. More on the design: key to IC50 Kv1.2 (class symbol): -: no or weak activity. Particulars: cited from earlier work. The text has this:
Table 1 Kunitz-type voltage-gated potassium channel toxins from animal venoms. | column: IC50 (nM) / Kv1.2

For another assay, the system named is Shaker IR. More on the design: key to IC50 Shaker IR (class symbol): -: no or weak activity. Particulars: cited from earlier work.
The subject of another assay is Kv1.1. Particulars: cited from earlier work. The text has this:
(§1) Kalicludines block Kv1.2 in µM concentratio ...

The test system of the next assay is Kv1.6. More on the design: key to IC50 Kv1.6 (class symbol): -: no or weak activity. Particulars: cited from earlier work. The text has this:
Table 1 Kunitz-type voltage-gated potassium channel toxins from animal venoms. | column: IC50 (nM) / Kv1.6

The next assay has as its system crabs. Particulars: ref [18]; cited from earlier work.
In assay [1] the test system is Kv1.1, Kv1.2, and Kv1.6 channels in rat synaptosomal membranes. Particulars: ref [18], cited from earlier work; for IC50: 125I α-DTX dendrotoxin binding to synaptosomal membranes.
Source text: as §1

For assay [2], the system named is macrophages treated with LPS. Particulars: ref [68]; cited from earlier work. The text has this:
Kv1.3 channels have gained a prominent role for their possibility to control neuroinflammatory and autoimmune diseases. Inflammation involves several processes including the activation of inflammatory cells, the secretion of pro-inflammatory cytokines and the release of various inflammatory mediators, leading to symptoms of inflammation such as redness, swelling, fever and pain [67].

Where two headings read alike, the source gives them in different places. Bridge positions count the residues as written; N and C are the ends. Ends that are not written are not given here.

In the case of `COc1ccc2c(c1)c(CC(=O)O)c(C)n2C(=O)c1ccc(Cl)cc1` [indomethacin], the “effect on TNF-α synthesis” value in the assay with TNF-α was “reduced the synthesis of TNF-α”.
For “APEKTx1: APEKTx1 (P61541) from the sea anemone A. elegantissima (GTTCYCGKTIGIYWFGTKTCPSNRGYTGSCGYFLGICCYPVD; UniProt P61541 1-42, looked up)”, the “trypsin inhibition (in words)” value with trypsin (ref [17]) is listed as “effectively inhibiting trypsin”. The “IC50 Kv1.3 (class symbol)” value in the assay on Kv1.3 (ref [17]) is listed as “-”. The “IC50 Kv1.2 (class symbol)” value in the assay with Kv1.2 (ref [17]) was “-”. In addition, the “IC50 Shaker IR (class symbol)” value with Shaker IR (ref [17]) is recorded as “-”. Moreover, in the assay on Kv1.1 (ref [17]), the IC50 is 0.9 nM and the “Kv1.1 block (in words)” value is listed as “selectively blocks Kv1.1 channels”. For the same molecule, the “IC50 Kv1.6 (class symbol)” value in the assay with Kv1.6 (ref [17]) is listed as “-”.
For “AsKC1: AsKC1 (Q9TWG0) from A. sulcata (INKDCLLPMDVGRCRASHPRYYYNSSSKRCEKFIYGGCRGNANNFHTLEECEKVCGVR; disulfide 14-38, 30-51, 5-55 (inferred); UniProt Q9TWG0 1-58, looked up)”, the IC50 in the assay on Kv1.2 (ref [16]) is 2800 nM.
“AsKC2: AsKC2 (Q9TWF9) from A. sulcata (INKDCLLPMDVGRCRARHPRYYYNSSSRRCEKFIYGGCRGNANNFITKKECEKVCGVR; disulfide 14-38, 30-51, 5-55 (inferred); UniProt Q9TWF9 1-58, looked up)”: the IC50 with Kv1.2 (ref [16]) is 1100 nM.
As to “AsKC3: AsKC3 (Q9TWF8) from A. sulcata (INGDCELPKVVGRCRARFPRYYYNLSSRRCEKFIYGGCGGNANNFHTLEECEKVCGVRS; disulfide 14-38, 30-51, 5-55 (inferred); UniProt Q9TWF8 1-59, looked up)”, the IC50 in the assay on Kv1.2 (ref [16]) is 1300 nM.
Consider “DTX-I: DTX1 (P00979) from snake Dendroaspis polylepis (QPLRKLCILHRNPGRCYQKIPAFYYNQKKKQCEGFTWSGCGGNSNRFKTIEECRRTCIRK; UniProt P00979 1-60, looked up)”, for which the IC50 with Kv1.2 (ref [48]) is 0.13 nM; in the assay with Kv1.1 (ref [48]), 3.1 nM.
In the case of “DTX-δ: DTX-δ (P00982) from Dendroaspis angusticeps (AAKYCKLPVRYGPCKKKIPSFYYKWKAKQCLPFDYSGCGGNANRFKTIEECRRTCVG; UniProt P00982 1-57, looked up)”, the IC50 in the assay with Shaker IR (ref [49]) is 1000 nM; in the assay with Kv1.1 (ref [49]), 0.01 nM.
Take “LmKTT-1a: LmKTT-1a (P0DJ46) from scorpion Lychas mucronatus”: the results for the IC50 in the assay on Kv1.3 (ref [50]), in the assay on Kv1.2 (ref [50]) and with Kv1.1 (ref [50]) were 1580 ± 73 nM, over 1000 nM and over 1000 nM, respectively.
As to “ShPI-1: ShPI-1 (P31713) from S. helianthus (SICSEPKKVGRCKGYFPRFYFDSETGKCTPFIYGGCGGNGNNFETLHQCRAICRA; UniProt P31713 1-55, looked up)”, in the assay on Kv1.3 (ref [19]), the “IC50 Kv1.3 (class symbol)” value is reported as “-”. The IC50 with Kv1.2 (ref [19]) was 9 ± 2 nM; in the assay with Kv1.1 (ref [19]), 117 ± 15 nM; with Kv1.6 (ref [19]), 9 ± 2 nM. Also, in the assay with Shaker IR (ref [19]), the “IC50 Shaker IR (class symbol)” value was “-”.

B1: SHTXIII: SHTXIII (B1B5I8) from S. haddoni (protein, UniProt B1B5I8 20-81, looked up)
KappaPI-stichotoxin-Shd2a: TEEMPALCHLQPDVPKCRGYFPRYYYNPEVGKCEQFIYGGCGGNKNNFVSFEACRATCIIPL
As to B1, the “paralysis of crabs (in words)” value in the assay with crabs is on record as “paralyzes crabs”. For the same molecule, the “trypsin inhibition (in words)” value in the assay on trypsin (ref [18]) is reported as “inhibited trypsin”. Moreover, the IC50 was 270 nM in [1] (column Kv1.1, read-out: IC50 Kv1.1 (125I α-DTX binding)); 270 nM in [1] (column Kv1.2, read-out: IC50 Kv1.2 (125I α-DTX binding)); 270 nM in assay [1] (column Kv1.6, read-out: IC50 Kv1.6 (125I α-DTX binding)). In assay [1] (rat synaptosomal membranes, at the level of Kv1.1, Kv1.2, and Kv1.6), the “competition with the binding of α-DTX (in words)” value is “competed with the binding of α-DTX”.

B2: bikunin: a human Kunitz-type peptide (protein, UniProt P02760 206-352, looked up)
Inter-alpha-trypsin inhibitor …: AVLPQEEEGSGGGQLVTEVTKKEDSCQLGYSAGPCMGMTSRYFYNGTSMACETFQYGGCMGNGNNFVTEKECLQTCRTVAACNLPIVRGPCRAFIQLWAFDAVKGKCVLFPYGGCQGNGNKFYSEKECREYCGVPGDGDEELLRFSN
modifications: Inter-alpha-trypsin inhibitor light chain
notes: a human Kunitz-type peptide
For the molecule B2, the “effect on production of mediators” value in assay [2] is “inhibits the production of thromboxane B2, TNF-α, and IL-8”.
